{"source": "ChEMBL document CHEMBL5247592", "about": "“Discovery of novel VEGFR-2-PROTAC degraders based on the localization of lysine residues via recruiting VHL for the treatment of gastric cancer” (Eur J Med Chem, 2022)", "key": {"HGC-27 [1]": {"test_system": "HGC-27", "assay": "Induction of cell cycle arrest in human HGC-27 cells assessed as accumulation of cells at G2/M phase incubated for 24 hrs by PI staining based flow cytometric analysis", "assay_type": "functional", "details": "dose 0.033-3.33 µM"}, "HGC-27 [2]": {"test_system": "HGC-27", "assay": "Induction of cell cycle arrest in human HGC-27 cells assessed as G0/G1 phase cells at 0.33 uM incubated for 24 hrs by PI staining based flow cytometric analysis (reference value: 47.4%)", "assay_type": "functional"}, "HGC-27 [3]": {"test_system": "HGC-27", "assay": "Induction of cell cycle arrest in human HGC-27 cells assessed as G2/M phase cells at 0.1 uM incubated for 24 hrs by PI staining based flow cytometric analysis (reference value: 13.3%)", "assay_type": "functional"}, "HGC-27 [4]": {"test_system": "HGC-27", "assay": "Induction of cell cycle arrest in human HGC-27 cells assessed as G0/G1 phase cells at 3.33 uM incubated for 24 hrs by PI staining based flow cytometric analysis (reference value: 47.4%)", "assay_type": "functional"}, "[5]": {"molecular_target": "T1, von Hippel-Lindau disease tumor suppressor/Vascular endothelial growth factor receptor 2 (Homo sapiens, UniProt P35968+P40337)", "T1 sequence (P35968 20-1356 limits assumed)": "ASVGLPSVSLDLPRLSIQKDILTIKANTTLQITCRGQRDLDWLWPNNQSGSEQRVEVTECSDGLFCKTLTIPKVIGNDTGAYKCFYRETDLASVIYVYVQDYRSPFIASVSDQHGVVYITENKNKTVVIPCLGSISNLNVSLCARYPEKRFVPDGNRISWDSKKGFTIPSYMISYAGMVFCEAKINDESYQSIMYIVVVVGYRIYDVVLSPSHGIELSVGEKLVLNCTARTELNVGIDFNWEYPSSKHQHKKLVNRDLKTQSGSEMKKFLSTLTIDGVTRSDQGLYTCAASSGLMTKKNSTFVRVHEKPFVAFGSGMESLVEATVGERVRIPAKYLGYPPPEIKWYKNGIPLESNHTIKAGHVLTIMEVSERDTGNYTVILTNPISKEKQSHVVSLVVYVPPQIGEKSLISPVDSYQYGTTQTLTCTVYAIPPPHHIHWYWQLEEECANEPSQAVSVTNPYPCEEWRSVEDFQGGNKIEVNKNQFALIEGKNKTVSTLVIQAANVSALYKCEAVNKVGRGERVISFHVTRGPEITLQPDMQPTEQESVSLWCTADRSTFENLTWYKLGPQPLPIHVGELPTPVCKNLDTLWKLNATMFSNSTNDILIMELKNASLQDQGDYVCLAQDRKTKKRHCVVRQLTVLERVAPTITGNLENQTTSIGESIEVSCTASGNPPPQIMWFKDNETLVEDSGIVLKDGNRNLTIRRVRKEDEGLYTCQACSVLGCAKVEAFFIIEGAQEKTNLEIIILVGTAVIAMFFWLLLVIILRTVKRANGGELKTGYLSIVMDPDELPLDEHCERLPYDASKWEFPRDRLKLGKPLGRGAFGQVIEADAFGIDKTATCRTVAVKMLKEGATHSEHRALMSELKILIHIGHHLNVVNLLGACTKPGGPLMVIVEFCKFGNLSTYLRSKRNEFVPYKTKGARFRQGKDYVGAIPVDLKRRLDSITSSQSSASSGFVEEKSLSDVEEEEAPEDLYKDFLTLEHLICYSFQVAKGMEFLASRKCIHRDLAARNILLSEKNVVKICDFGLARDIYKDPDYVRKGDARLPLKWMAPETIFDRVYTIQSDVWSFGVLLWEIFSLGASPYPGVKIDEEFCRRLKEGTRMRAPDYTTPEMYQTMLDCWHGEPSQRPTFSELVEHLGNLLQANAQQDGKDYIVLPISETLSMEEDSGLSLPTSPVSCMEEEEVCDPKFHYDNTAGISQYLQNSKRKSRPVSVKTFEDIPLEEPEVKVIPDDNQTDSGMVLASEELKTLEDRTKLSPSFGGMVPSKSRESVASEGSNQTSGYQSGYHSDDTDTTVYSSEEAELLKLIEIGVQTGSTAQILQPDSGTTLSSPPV", "T1 sequence (P40337 whole entry partner)": "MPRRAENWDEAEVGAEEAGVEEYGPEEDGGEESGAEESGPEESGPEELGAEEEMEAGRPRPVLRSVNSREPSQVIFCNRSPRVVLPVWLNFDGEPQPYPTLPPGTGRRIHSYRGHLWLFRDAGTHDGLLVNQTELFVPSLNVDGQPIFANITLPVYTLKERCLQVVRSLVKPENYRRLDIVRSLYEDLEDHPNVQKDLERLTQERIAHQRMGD", "assay": "PROTAC activity at VHL/VEGFR2 in human HGC-27 cells assessed as residual activity by measuring VEGFR2 expression level at 1 uM incubated for 24 hrs followed by compound washout and measured after 8 hrs by Western blot analysis relative to control", "assay_type": "cell-based"}, "HGC-27 [6]": {"test_system": "HGC-27", "assay": "Induction of cell cycle arrest in human HGC-27 cells assessed as G2/M phase cells at 3.33 uM incubated for 24 hrs by PI staining based flow cytometric analysis (reference value: 13.3%)", "assay_type": "functional"}, "[7]": {"molecular_target": "T1, von Hippel-Lindau disease tumor suppressor/Vascular endothelial growth factor receptor 2", "assay": "PROTAC activity at VHL/VEGFR2 in human HGC-27 cells assessed as reduction in VEGFR2 protein expression at 1 uM measured upto 24 hrs in the presence of cycloheximide by Western blot analysis", "assay_type": "cell-based"}, "[8]": {"molecular_target": "T1, von Hippel-Lindau disease tumor suppressor/Vascular endothelial growth factor receptor 2", "assay": "PROTAC activity at VHL/VEGFR2 in human HGC-27 cells assessed as induction of VEGFR2 degradation at 1 uM measured after 4 hrs by Western blot analysis relative to control", "assay_type": "cell-based"}, "[9]": {"molecular_target": "T1, von Hippel-Lindau disease tumor suppressor/Vascular endothelial growth factor receptor 2", "assay": "PROTAC activity at VHL/VEGFR2 in human HGC-27 cells assessed as reduction in relative VEGRF2 expression level at 1 uM preincubated with 4-Amino-N-(6-(1-(2-((4-methyl-3-(trifluoromethyl)phenyl)amino)-2-oxoethyl)-1H-pyrazol-4-y1)-1H-indazol-3-Abenzamide for 2 hrs followed by compound addition and measured after 24 hrs by Western blot analysis", "assay_type": "cell-based"}, "[10]": {"assay": "Effect on VEGFR2 mRNA expression in human HGC-27 cells at 0.1 uM incubated for 24 hrs by qPCR analysis relative to control", "assay_type": "functional"}, "[11]": {"molecular_target": "T1, von Hippel-Lindau disease tumor suppressor/Vascular endothelial growth factor receptor 2", "assay": "PROTAC activity at VHL/VEGFR2 in human HGC-27 cells assessed as induction of VEGRF2 protein degradation at 1 uM preincubated with MG-132 for 2 hrs followed by compound addition and measured after 24 hrs by Western blot analysis", "assay_type": "cell-based"}, "HGC-27 [12]": {"test_system": "HGC-27", "assay": "Inhibition of colony formation in human HGC-27 cells incubated for 8 days by crystal violet staining based analysis", "assay_type": "functional, cell-based", "details": "dose 0.033-3.33 µM, time 8.0 day"}, "HGC-27 [13]": {"test_system": "HGC-27", "assay": "Induction of apoptosis in human HGC-27 cells assessed as necrotic cells at 1 uM incubated for 24 hrs by Annexin V-FITC/PI staining based analysis (reference value: 0.65 %)", "assay_type": "functional"}, "[14]": {"molecular_target": "T1, von Hippel-Lindau disease tumor suppressor/Vascular endothelial growth factor receptor 2", "assay": "PROTAC activity at VHL/VEGFR2 in human HGC-27 cells assessed as reduction in relative VEGRF2 expression level at 1 uM preincubated with MLN4924 for 2 hrs followed by compound addition and measured after 24 hrs by Western blot analysis", "assay_type": "cell-based"}, "HGC-27 [15]": {"test_system": "HGC-27", "assay": "Inhibition of cell migration in human HGC-27 cells assessed as suppression of cell migration at 3.3 uM incubated for 6 hrs by wound healing assay relative to control", "assay_type": "functional"}, "[16]": {"molecular_target": "T1, von Hippel-Lindau disease tumor suppressor/Vascular endothelial growth factor receptor 2", "assay": "PROTAC activity at VHL/VEGFR2 in human HGC-27 cells assessed as residual activity by measuring VEGFR2 expression level at 1 uM incubated for 24 hrs followed by compound washout and measured after 12 hrs by Western blot analysis relative to control", "assay_type": "cell-based"}, "HGC-27 [17]": {"test_system": "HGC-27", "assay": "Induction of apoptosis in human HGC-27 cells assessed as viable cells at 1 uM incubated for 24 hrs by Annexin V-FITC/PI staining based analysis (reference value: 95.3%)", "assay_type": "functional", "details": "read-out: Activity"}, "[18]": {"assay": "Cytotoxicity against HEK293T cells assessed as inhibition of cell growth incubated for 72 hrs by MTT assay", "assay_type": "toxicity, cell-based, HEK-293T", "details": "human"}, "HGC-27 [19]": {"test_system": "HGC-27", "assay": "Induction of apoptosis in human HGC-27 cells assessed as early apoptotic cells at 0.1 uM incubated for 24 hrs by Annexin V-FITC/PI staining based analysis (reference value: 1.7 %)", "assay_type": "functional"}, "[20]": {"assay": "Effect on VEGFR2 mRNA expression in human HGC-27 cells at 3.33 uM incubated for 24 hrs by qPCR analysis relative to control", "assay_type": "functional"}, "HGC-27 [21]": {"test_system": "HGC-27", "assay": "Induction of apoptosis in human HGC-27 cells assessed as early apoptotic cells at 1 uM incubated for 24 hrs by Annexin V-FITC/PI staining based analysis (reference value: 1.7 %)", "assay_type": "functional"}, "HGC-27 [22]": {"test_system": "HGC-27", "assay": "Induction of cell cycle arrest in human HGC-27 cells assessed as G0/G1 phase cells at 0.033 uM incubated for 24 hrs by PI staining based flow cytometric analysis (reference value: 47.4%)", "assay_type": "functional"}, "HGC-27 [23]": {"test_system": "HGC-27", "assay": "Inhibition of cell migration in human HGC-27 cells at 0.033 to 3.33 uM by wound healing assay", "assay_type": "functional, cell-based", "details": "dose 0.033-3.33 µM, time <= 24.0 hrs, TDE = time-dependent effect"}, "HGC-27 [24]": {"test_system": "HGC-27", "assay": "Induction of apoptosis in human HGC-27 cells assessed as necrotic cells at 3.3 uM incubated for 24 hrs by Annexin V-FITC/PI staining based analysis (reference value: 0.65 %)", "assay_type": "functional"}, "HGC-27 [25]": {"test_system": "HGC-27", "assay": "Induction of cell cycle arrest in human HGC-27 cells assessed as S phase cells at 0.1 uM incubated for 24 hrs by PI staining based flow cytometric analysis (reference value: 26.4%)", "assay_type": "functional"}, "[26]": {"molecular_target": "T1, von Hippel-Lindau disease tumor suppressor/Vascular endothelial growth factor receptor 2", "assay": "PROTAC activity at VHL/VEGFR2 in human HGC-27 cells assessed as induction of VEGFR2 degradation at 1 uM measured after 8 hrs by Western blot analysis relative to control", "assay_type": "cell-based"}, "[27]": {"molecular_target": "T1, von Hippel-Lindau disease tumor suppressor/Vascular endothelial growth factor receptor 2", "assay": "PROTAC activity at VHL/VEGFR2 in human HGC-27 cells assessed as induction of VEGRF2 protein degradation at 1 uM preincubated with VH032 for 2 hrs followed by compound addition and measured after 24 hrs by Western blot analysis", "assay_type": "cell-based"}, "HGC-27 [28]": {"test_system": "HGC-27", "assay": "Induction of apoptosis in human HGC-27 cells assessed as necrotic cells at 0.33 uM incubated for 24 hrs by Annexin V-FITC/PI staining based analysis (reference value: 0.65 %)", "assay_type": "functional"}, "[29]": {"molecular_target": "T1, von Hippel-Lindau disease tumor suppressor/Vascular endothelial growth factor receptor 2", "assay": "PROTAC activity at VHL/VEGFR2 in human HGC-27 cells assessed as residual activity by measuring VEGFR2 expression level at 1 uM incubated for 24 hrs followed by compound washout and measured after 24 hrs by Western blot analysis relative to control", "assay_type": "cell-based"}, "[30]": {"assay": "Cytotoxicity against human GES1 cells assessed as inhibition of cell growth incubated for 72 hrs by MTT assay", "assay_type": "toxicity, cell-based"}, "HGC-27 [31]": {"test_system": "HGC-27", "assay": "Induction of apoptosis in human HGC-27 cells assessed as necrotic cells at 0.1 uM incubated for 24 hrs by Annexin V-FITC/PI staining based analysis (reference value: 0.65 %)", "assay_type": "functional"}}, "note": "Active and inactive are the calls of the source. The calls are words filed in the database; no cut-off is given here."}
{"compound": "Cc1ccc(NC(=O)Cn2cc(-c3ccc4c(NC(=O)c5ccc(NC(=O)CCCCCCCCC(=O)N[C@H](C(=O)N6C[C@H](O)C[C@H]6C(=O)NCc6ccc(-c7scnc7C)cc6)C(C)(C)C)cc5)n[nH]c4c3)cn2)cc1C(F)(F)F", "values": [{"measurement": "Activity", "setting": "HGC-27 [1]", "result": "Dose-Dependent Effect"}, {"measurement": "Activity", "setting": "HGC-27 [2]", "result": 23.9, "unit": "%"}, {"measurement": "Activity", "setting": "HGC-27 [3]", "result": 18.2, "unit": "%"}, {"measurement": "Activity", "setting": "HGC-27 [4]", "result": 14.1, "unit": "%"}, {"measurement": "Activity", "setting": "[5]", "result": 46, "unit": "%"}, {"measurement": "Activity", "setting": "HGC-27 [6]", "result": 56.8, "unit": "%"}, {"measurement": "Activity", "setting": "[7]", "result": "Active"}, {"measurement": "Activity", "setting": "[8]", "result": 16.9, "unit": "%"}, {"measurement": "Activity", "setting": "[9]", "result": "inactive"}, {"measurement": "Activity", "setting": "[10]", "result": 90, "unit": "%"}, {"measurement": "Activity", "setting": "[11]", "result": "inactive"}, {"measurement": "inhibition", "setting": "HGC-27 [12]", "result": "Dose-Dependent Effect"}, {"measurement": "Activity", "setting": "HGC-27 [13]", "result": 0.64, "unit": "%"}, {"measurement": "Activity", "setting": "[14]", "result": "inactive"}, {"measurement": "inhibition at 3.3 µM", "setting": "HGC-27 [15]", "result": 12.3, "unit": "%"}, {"measurement": "Activity", "setting": "[16]", "result": 66.3, "unit": "%"}, {"measurement": "viability at 1 µM", "setting": "HGC-27 [17]", "result": 76.5, "unit": "%"}, {"measurement": "IC50 at 72 h", "setting": "[18]", "result": 14.5, "unit": "µM"}, {"measurement": "Activity", "setting": "HGC-27 [19]", "result": 3.5, "unit": "%"}, {"measurement": "Activity", "setting": "[20]", "result": 105.3, "unit": "%"}, {"measurement": "Activity", "setting": "HGC-27 [21]", "result": 8.6, "unit": "%"}, {"measurement": "Activity", "setting": "HGC-27 [22]", "result": 41.1, "unit": "%"}, {"measurement": "inhibition", "setting": "HGC-27 [23]", "result": "Tde"}, {"measurement": "Activity", "setting": "HGC-27 [24]", "result": 0.52, "unit": "%"}, {"measurement": "Activity", "setting": "HGC-27 [25]", "result": 25.8, "unit": "%"}, {"measurement": "Activity", "setting": "[26]", "result": 18.2, "unit": "%"}, {"measurement": "Activity", "setting": "[27]", "result": "inactive"}, {"measurement": "Activity", "setting": "HGC-27 [28]", "result": 0.96, "unit": "%"}, {"measurement": "Activity", "setting": "[29]", "result": 77, "unit": "%"}, {"measurement": "IC50 at 72 h", "setting": "[30]", "result": 20, "unit": "µM"}, {"measurement": "Activity", "setting": "HGC-27 [31]", "result": 0.46, "unit": "%"}]}
